Test results taken from the CheMixHub ionic liquid set.

Test: xn = mol fraction of the nth substance listed

CCCC[n+]1ccn(C)c1.F[P-](F)(F)(F)(F)F + CC#N
298.15 K, 101 kPa
Conditions | electrical conductivity [S/m] | viscosity [mPa·s]
x2 = 0 | 0.157 | 260
x2 = 0.099 | 0.245 | 153
x2 = 0.1938 | 0.374 | 93
x2 = 0.1945 | – | 86
x2 = 0.2936 | 0.552 | 53.6
x2 = 0.3885 | 0.84 | 31.3
x2 = 0.4978 | 1.3 | 16.2
x2 = 0.5896 | 1.84 | 8.8
x2 = 0.6994 | 2.71 | 4.18
x2 = 0.7855 | 3.46 | 2.27
x2 = 0.846 | 3.93 | 1.48
x2 = 0.8918 | 4.18 | 1.08

CCCC[n+]1ccn(C)c1.O=S(=O)([N-]S(=O)(=O)C(F)(F)F)C(F)(F)F + CC#N
Conditions | electrical conductivity, x1 = 0.0063 [S/m] | electrical conductivity, x1 = 0.01076 [S/m] | electrical conductivity, x2 = 0.661 [S/m] | electrical conductivity, x2 = 0.905 [S/m] | viscosity, x2 = 0 [mPa·s] | viscosity, x2 = 0.1534 [mPa·s] | viscosity, x2 = 0.2508 [mPa·s] | viscosity, x2 = 0.602 [mPa·s] | viscosity, x2 = 0.7518 [mPa·s]
294.5 K, 100 kPa | – | 1.58 | – | – | – | – | – | – | –
298 K, 101 kPa | 1.14 | – | 2.25 | 4.42 | 50.4 | 34.4 | 25.4 | 6.4 | 2.73
